This passage reports IC50 results from ChEMBL document CHEMBL3886681, “Rotenone derivatives and a use thereof” (2016).

This experiment addresses T1, Pancreatic triacylglycerol lipase (Sus scrofa, UniProt P00591).
T1 sequence (P00591 whole entry): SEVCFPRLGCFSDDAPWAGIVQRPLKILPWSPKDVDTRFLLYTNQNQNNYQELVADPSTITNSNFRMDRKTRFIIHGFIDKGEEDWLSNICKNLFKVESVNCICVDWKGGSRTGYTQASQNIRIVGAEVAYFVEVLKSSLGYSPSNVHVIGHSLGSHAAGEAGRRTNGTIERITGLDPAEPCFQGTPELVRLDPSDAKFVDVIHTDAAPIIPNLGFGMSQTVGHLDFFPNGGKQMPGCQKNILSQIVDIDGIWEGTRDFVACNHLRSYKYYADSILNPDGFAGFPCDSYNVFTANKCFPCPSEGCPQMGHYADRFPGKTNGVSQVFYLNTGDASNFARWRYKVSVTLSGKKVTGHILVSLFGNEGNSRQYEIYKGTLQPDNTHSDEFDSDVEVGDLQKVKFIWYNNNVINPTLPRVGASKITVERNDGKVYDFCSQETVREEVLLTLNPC
The experiment is described as follows: Inhibition Assay: Particularly, pancreatic lipase inhibiting activity was measured by the conventional method known to those in the art (Kim, J. H.; Kim, H. J.; Park, H. W.; Youn, S. H.; Choi, D. Y.; Shin, C. S. FEMS Microbiol. Lett. 2007, 276, 93.). To prepare the enzyme buffer, 30 mL (10 units) of pig pancreatic lipase solution (Sigma, St. Louis, Mo.) and 1 mM EDTA (pH 6.8) were mixed with 10 mM MOPS (morpholinepropanesulphonic acid), which was added to 850 mL of tris buffer (100 mM Tris-HCl and 5 mM CaCl2, pH 7.0). Then, 100 mL of the rotenoisin A or B of the present invention was mixed with the prepared enzyme buffer at the experimental concentration. […] 20 mL of substrate solution containing 20 mM p-nitrophenylbutyrate dissolved in dimethyl formaide was added to the enzyme buffer, followed by culture for 15 minutes at 37° C. that was the temperature adequate for enzyme reaction.

For the compound `C=C(C)[C@H]1Cc2c(ccc3c2OC2COc4cc(OC)c(OC)cc4C2[C@@]32CO2)O1` (stereo partly specified), the IC50 – broadly, the concentration that gives 50% inhibition – turned out to be 6.3 µM.
